Results published in patent US20260374739A1, “SMALL MOLECULAR WEIGHT CHEMICAL COMPOUND TO ANTAGONIZE EPH-EPHRIN TETRAMERIZATION AND INHIBIT BIDIRECTIONAL SIGNALING” (THE BOARD OF REGENTS OF THE UNIVERSITY OF TEXAS SYSTEM, priority 2022, published 2026).
Where two headings read alike, the source gives them in different places.

Assays:
EphB1-EphrinB2 = target: T1, EphB1-EphrinB2 (Rattus norvegicus, UniProt P09759); test: shortened association (80 sec) Octet, immobilized rat EphB1-Fc binding to 100 nM mEB2-His; set-up: species or system mouse EphrinB2; conditions: for Kd: 1:1 fit, read-out: KD of EphB1-EB2; for increase in rate of dissociation (Kdis) / lower affinity of EphB1-EB2 / tetramer accumulation slope: role: inhibitor
T1 construct: rat EphB1-Fc residues 18-538; mouse EB2-His residues 18-232; purchased R&D Systems (EphB1-Fc); Sino Biologicals (EB2-His)
T1 sequence (P09759 18-538): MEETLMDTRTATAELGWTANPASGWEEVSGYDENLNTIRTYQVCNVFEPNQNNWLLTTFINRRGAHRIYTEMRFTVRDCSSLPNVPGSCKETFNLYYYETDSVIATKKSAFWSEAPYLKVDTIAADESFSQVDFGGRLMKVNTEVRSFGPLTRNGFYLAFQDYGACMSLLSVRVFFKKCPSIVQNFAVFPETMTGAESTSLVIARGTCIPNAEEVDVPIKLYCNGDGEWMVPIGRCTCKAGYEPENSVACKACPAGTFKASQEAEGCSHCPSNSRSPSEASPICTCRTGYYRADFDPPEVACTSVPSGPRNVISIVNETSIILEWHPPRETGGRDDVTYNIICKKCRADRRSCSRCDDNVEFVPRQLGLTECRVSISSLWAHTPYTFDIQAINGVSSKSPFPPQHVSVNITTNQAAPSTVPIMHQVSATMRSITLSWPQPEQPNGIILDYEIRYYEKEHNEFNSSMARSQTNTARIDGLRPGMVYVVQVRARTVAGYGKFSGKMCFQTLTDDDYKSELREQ
Experimental: In the above disclosed Octet interaction studies using human proteins the association and dissociation times were doubled to 800 and 1,000 sec, respectively, resulting in a greater accumulation of the super-stable surmountable and extra-super-stable unsurmountable forms of the Eph-Ephrin tetramers. To better assess early binding activities in the absence of A20, biophysical studies were conducted in which the association times were shortened to 80, 40, 20, 15, 10, and 5 sec, followed by a standard 500 sec dissociation, and where biosensor immobilized rEphB1-Fc ectodomain was exposed to 100 nM soluble mEB2-His. Focusing first on the run with 80 sec association step and for illustrative purpose (FIG. 23), the biosensor response indicates the expected rapid formation of EphB1-EB2 dimers with extremely high 87° slope for the first 10-15 sec of the association, which then quickly bends again as expected this time to a −60° slope as tetramers begin to accumulate. […] The dissociation response then quickly bent to level off and plateau at a signal much higher than baseline to represent the species of stable EphB1-EB2 tetramers that remained complexed throughout the remaining dissociation step.
To assess how A20 chemicals alter early binding activities, 80 sec Octet runs were then conducted using 0, 10, and 100 μM concentrations of the A20 salt compound (FIG. 25A 25B). In the absence of A20, the association response of immobilized EphB1 binding to soluble EB2 is typical to that shown in FIG. 24 and indicates rapid early formation of dimers with very high 87° slope that quickly bends to the tetramerization accumulation slope of −60°, and then once in the dissociation step the slope abruptly reverses to show fast-off of the dimer species with a signal that then leveled off in this experiment at 67% of the maximum response and represents accumulation of the stable tetramers. In runs containing A20, even though there was no effect on the early and fast formation of dimers during the 80 sec association step, there was a clear and very strong dose-dependent reduction in accumulation of the tetramer.
This can be especially seen in the analysis of the kinetic data where the parameters were set to calculate information based off of a 1:1 interaction (FIG. 25C). […] This increased rate of dissociation reflects the near absence in formation of stable tetramers and provides a fairly accurate representation of the Kdis that is specifically attributed to the fast-off melting of dimers. Summarizing these biophysical studies, in the presence of A20 only the fast-on/fast-off dimers form and are visualized in the association step, quickly reaching a homeostasis level of dimers forming and melting in equilibrium (fast-on/fast-off), and not being able to associate into tetramers. Then, when placed into the dissociation step, all the existing dimers quickly melt off leaving behind the few tetramers that were able to form. […] Based on the results, it is concluded that A20 chemicals can be classified as specific/select inhibitors of Eph-Ephrin tetramerization.

[1] = target: pre-formed EphB2-EphrinB2 tetramer (Mus musculus, UniProt P54763); test: Octet competition of pre-existing tetramers, mouse EphB2-EphrinB2; format: binding; conditions: 2, 10, 50 μM
Experimental: Biophysical studies were conducted to explore if A20 is able to disrupt pre-existing stable tetramers, focusing on interactions of immobilized human EphrinB2 binding to soluble human EphB1 and EphB2, and immobilized mouse EphB2 binding to mouse EphrinB2 (FIGS. 29A-29C). In these experiments, sensor-chip immobilized proteins were first exposed to 50 nM of their soluble target protein for an 800 sec association step and 1,000 sec dissociation step to generate pre-formed stable tetramers, which were then subjected to a 1,000 sec competition step that included either 0, 2, 10, or 50 μM concentrations of A20 salt compound. […] The ability of A20 to disrupt pre-existing tetramers was most pronounced for human EB2-EphB2 and cognate murine EphB2-EB2 experiments and indicated a gradual ongoing dose-dependent decline in tetramers throughout the 1,000 sec competition step (and beyond if allowed) and irrespective of whether the human EphrinB2 or murine EphB2 was the immobilized protein.

pre-formed EphB2-EphrinB2 tetramer, sequence (P54763 19-543 limits assumed): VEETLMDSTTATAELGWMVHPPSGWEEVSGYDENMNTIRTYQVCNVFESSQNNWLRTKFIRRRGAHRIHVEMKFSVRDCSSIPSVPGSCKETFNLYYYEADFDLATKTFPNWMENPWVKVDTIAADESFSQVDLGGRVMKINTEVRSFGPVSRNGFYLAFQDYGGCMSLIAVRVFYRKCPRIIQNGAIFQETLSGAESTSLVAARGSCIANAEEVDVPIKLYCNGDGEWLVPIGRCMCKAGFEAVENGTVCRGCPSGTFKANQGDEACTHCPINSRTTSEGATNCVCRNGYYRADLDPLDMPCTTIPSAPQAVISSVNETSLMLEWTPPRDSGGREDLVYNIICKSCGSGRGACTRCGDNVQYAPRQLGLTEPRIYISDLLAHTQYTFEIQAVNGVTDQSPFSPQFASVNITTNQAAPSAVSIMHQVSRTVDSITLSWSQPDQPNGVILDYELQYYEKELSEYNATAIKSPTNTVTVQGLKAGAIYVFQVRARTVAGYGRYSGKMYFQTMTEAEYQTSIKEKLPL

For Oc1c(Br)cc(CN2CCOCC2)c2cccnc12 [Compound 5, 7-bromo-5-(morpholinomethyl)quinolin-8-ol], the Kd (EphB1-EphrinB2; in presence of 10 μM A20) was 10.5 nM, the Kd (EphB1-EphrinB2; in presence of 100 μM A20) was 46.2 nM and the “increase in rate of dissociation (Kdis)” value (EphB1-EphrinB2; 10 μM A20) was 90 fold. The “lower affinity of EphB1-EB2” value (EphB1-EphrinB2; 10 μM A20) was 76 fold, the tetramer accumulation slope (EphB1-EphrinB2; 10 μM A20, 60° without) was 16 ° and the “increase in rate of dissociation (Kdis)” value (EphB1-EphrinB2; 100 μM A20) was 275 fold. The “lower affinity of EphB1-EB2” value (EphB1-EphrinB2; 100 μM A20) was 337 fold, the “tetramer accumulation slope” value (EphB1-EphrinB2; 100 μM A20) was “flat line with no slope” and the “competition of pre-formed tetramers” value [1] was “able to compete away in a dose-dependent manner a significant amount of the stable pre-formed tetramer complexes”.
